Source: PMC6476273, “Engineering a Model Cell for Rational Tuning of GPCR Signaling” (Cell, 2019)
Read-outs that look alike come from different tables or passages of the source. Ends that are not written are not given here.

Legend:
human MTNR1A receptor [1] = target: T1, human MTNR1A receptor (Homo sapiens, UniProt P48039)
human MTNR1A receptor [2] = target: T1, human MTNR1A receptor; settings: for Hill slope: plate reader
human A2BR receptor [3] = target: T2, human A2BR receptor (Homo sapiens, UniProt P29275); test: Adenosine dose-response, A2BR single strain and three-strain consortium, sfGFP by plate reader; assay type: cell-based; settings: for Hill slope: plate reader
T2 sequence (P29275 1-332): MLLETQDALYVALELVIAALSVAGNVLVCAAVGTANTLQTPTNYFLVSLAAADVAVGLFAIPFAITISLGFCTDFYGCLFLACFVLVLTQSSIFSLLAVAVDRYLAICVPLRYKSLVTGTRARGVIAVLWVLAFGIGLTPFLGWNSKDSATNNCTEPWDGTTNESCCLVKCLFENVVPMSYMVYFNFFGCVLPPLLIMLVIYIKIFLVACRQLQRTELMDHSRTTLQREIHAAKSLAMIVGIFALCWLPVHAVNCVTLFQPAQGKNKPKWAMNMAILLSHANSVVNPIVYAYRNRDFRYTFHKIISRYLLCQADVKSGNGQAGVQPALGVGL
T2 sequence (P08539 2-472 partner): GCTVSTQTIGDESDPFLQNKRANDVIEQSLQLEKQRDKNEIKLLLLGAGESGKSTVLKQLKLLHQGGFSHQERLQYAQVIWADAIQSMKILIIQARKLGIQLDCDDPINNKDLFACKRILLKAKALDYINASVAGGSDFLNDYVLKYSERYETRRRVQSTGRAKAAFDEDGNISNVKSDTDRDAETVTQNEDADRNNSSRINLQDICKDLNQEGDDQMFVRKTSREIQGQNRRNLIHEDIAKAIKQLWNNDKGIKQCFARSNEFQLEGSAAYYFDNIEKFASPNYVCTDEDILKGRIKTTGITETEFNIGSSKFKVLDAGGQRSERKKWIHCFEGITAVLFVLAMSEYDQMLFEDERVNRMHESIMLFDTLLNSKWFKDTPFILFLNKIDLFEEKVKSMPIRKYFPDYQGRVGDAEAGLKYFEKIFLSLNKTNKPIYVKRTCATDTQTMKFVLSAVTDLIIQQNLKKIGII

human A2BR receptor [4] = target: T2, human A2BR receptor; test: Adenosine dose-response, A2BR sensor strain, sfGFP by flow cytometry; assay type: cell-based; settings: Fig S6C, wild-type Gpa1, triplicate isolates
[5] = tested on: P. brasiliensis Ste2 homolog (PbSte2); test: PbPeptide dose-response, PbSte2 sensor single cell and two-cell amplifier-receiver consortium, GFP by plate reader; assay type: cell-based, Paracoccidioides brasiliensis
From the text: For pathogen detection, we next set out to tune a point-of-care sensor for Paracoccidioides brasiliensis, recently developed by [Ostrov et al. (2017)]. This yeast GPCR-based sensor, utilizing the Ste2 homolog from P. brasiliensis (PbSte2), detects environmental levels of pheromone peptide released by haploid P. brasiliensis cells (PbPeptide) as a means of specifically detecting this human pathogen in complex samples (Figure 6E). […] To optimize these two properties, we applied our amplifier-receiver two strain approach to the PbSte2 sensor (Figures 6F–6H).

[6] = tested on: P. brasiliensis Ste2 homolog (PbSte2); settings: PbSte2 in S. cerevisiae; ref Ostrov et al., 2017; cited from earlier work
From the text: (D) The ... || For pathogen detection, we next set out to tune a point-of-care sensor for Paracoccidioides brasiliensis, recently developed by [Ostrov et al. (2017)]. This yeast GPCR-based sensor, utilizing the Ste2 homolog from P. brasiliensis (PbSte2), detects environmental levels of pheromone peptide released by haploid P. brasiliensis cells (PbPeptide) as a means of specifically detecting this human pathogen in complex samples (Figure 6E).

Mam2 receptor = target: T3, Mam2 receptor (Schizosaccharomyces pombe, UniProt Q00619); test: P-factor dose-response, Mam2 sensor strain in yWS677, sfGFP by flow cytometry; assay type: cell-based
T3 construct: expressed in transfected cells; host or cells: Saccharomyces cerevisiae yWS677 (BY4741 derivative), chromosomally integrated YTK cassette
T3 sequence (Q00619 1-348): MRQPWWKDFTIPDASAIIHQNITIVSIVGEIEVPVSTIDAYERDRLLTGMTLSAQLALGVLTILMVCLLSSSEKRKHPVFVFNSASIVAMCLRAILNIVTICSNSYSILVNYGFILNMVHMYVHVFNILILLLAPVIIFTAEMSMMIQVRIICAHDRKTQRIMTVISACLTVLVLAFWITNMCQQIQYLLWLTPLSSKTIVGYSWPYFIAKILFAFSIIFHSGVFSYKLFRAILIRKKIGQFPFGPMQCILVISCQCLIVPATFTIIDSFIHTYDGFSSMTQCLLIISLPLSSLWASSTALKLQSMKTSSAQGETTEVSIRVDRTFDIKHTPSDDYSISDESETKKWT

Ste2 = test: α-factor dose-response of pheromone response pathway strains, sfGFP by flow cytometry; assay type: cell-based, Saccharomyces cerevisiae
[7] = three-strain consortium 1:1:1 vs initial response

T1 sequence (P48039 whole entry, one chain of several): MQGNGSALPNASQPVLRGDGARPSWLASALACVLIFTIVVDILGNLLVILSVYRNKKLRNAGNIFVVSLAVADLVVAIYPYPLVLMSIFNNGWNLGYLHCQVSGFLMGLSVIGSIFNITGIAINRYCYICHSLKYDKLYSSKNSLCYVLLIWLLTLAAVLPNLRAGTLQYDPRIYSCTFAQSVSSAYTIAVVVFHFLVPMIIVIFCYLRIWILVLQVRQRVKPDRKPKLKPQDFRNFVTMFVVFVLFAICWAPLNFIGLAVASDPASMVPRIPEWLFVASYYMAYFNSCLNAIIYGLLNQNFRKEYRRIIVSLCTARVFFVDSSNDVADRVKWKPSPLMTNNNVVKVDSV

Question: For `COc1ccc2[nH]cc(CCNC(C)=O)c2c1` [Melatonin], which Hill slope (human MTNR1A receptor [1]; Fig S6D, MTNR1A sensor strain, wild-type Gpa1, flow cytometry, triplicate isolates) is on record?
Answer: The Hill slope was 0.80 ± 0.04.

Question: What about the “linear range of dose-response” value (human MTNR1A receptor [1]; two-strain consortia, Fig 6B) of the same compound?
Answer: Its value is “four”.

Question: And the “operational range” value (human MTNR1A receptor [2]; Fig 5F legend, single population)?
Answer: The value was 3.8 orders of magnitude.

Question: What about the Hill slope (human MTNR1A receptor [2]; Fig 5F, single pop.) of the same compound?
Answer: The Hill slope was 0.69 ± 0.03.

Question: And the operational range (human MTNR1A receptor [2]; Fig 5F, single pop., span between 5% and 95% of the activated response)?
Answer: The operational range was 3.79 ± 0.15 orders of magnitude.

Question: And the Hill slope (human MTNR1A receptor [2]; Fig 5G, mixed pop., tuned two-strain system 1:1)?
Answer: Its Hill slope is 1.65 ± 0.06.

Question: What about the operational range (human MTNR1A receptor [2]; Fig 5G, mixed pop., two-strain system, span between 5% and 95% of the activated response) of the same compound?
Answer: The operational range was 1.48 ± 0.19 orders of magnitude.

Question: Which Hill slope (human A2BR receptor [3]; Fig 5B, single pop.) does the source give for `Nc1ncnc2c1ncn2[C@@H]1O[C@H](CO)[C@@H](O)[C@H]1O` [Adenosine] here?
Answer: Its Hill slope is 1.41 ± 0.10.

Question: What about the operational range (human A2BR receptor [3]; Fig 5B, single pop., span between 5% and 95% of the activated response) of the same compound?
Answer: Its operational range is 1.56 ± 0.07 orders of magnitude.

Question: What about the “operational range” value (human A2BR receptor [3]; Fig 5C legend, consortia of three engineered strains) of the same compound?
Answer: The value was 3.3 orders of magnitude.

Question: And the Hill slope (human A2BR receptor [3]; Fig 5C, mixed pop. of three strains 1:1:1)?
Answer: The Hill slope was 0.78 ± 0.02.

Question: And the operational range (human A2BR receptor [3]; Fig 5C, mixed pop. of three strains 1:1:1, span between 5% and 95% of the activated response)?
Answer: Its operational range is 3.27 ± 0.08 orders of magnitude.

Question: And the “change in Hill slope” value (human A2BR receptor [3]; [7])?
Answer: Its value is “almost halved the Hill slope”.

Question: And the “increase in operational range” value (human A2BR receptor [3]; [7])?
Answer: The value was 50 -fold.

Question: What about the Hill slope (human A2BR receptor [4]) of the same compound?
Answer: The Hill slope was 1.32 ± 0.08.

Question: What does the source list for WCTRPGQGC [PbPeptide]?
Answer: detection range ([5]; CCW12 promoter and signal amplification, two-strain consortia): picomolar range; narrowing of operational range ([5]; amplifier-receiver two strain consortia): 1,000 -fold; sensitivity [6]: nanomolar sensitivity

Question: Which results are given for TYADFLRAYQSWNTFVNPDRPNL [P-factor]?
Answer: EC50 (Mam2 receptor; Fig 4D, Mam2 - yWS677, 4 h induction, 1 % DMSO, SC medium, 30°C, sfGFP flow cytometry, mean ± SD, triplicate isolates): 117 nM; potency (EC50) compared with native S. pombe response (Mam2 receptor; Mam2 sensor strain vs S. pombe (Croft et al., 2013)): identical potency (EC50)

Question: For “WHWLQLKPGQPMY [α-factor, S. cerevisiae peptide pheromone, ligand of Ste2]”, which “activation at 100 pM ɑ-factor on Ste2 overexpression” value (Ste2; Design 4 strain with 2x and 3x Ste2 (pCCW12), Fig S4H) is on record?
Answer: Its value is “unchanged”.

Question: And the “sensitivity and signal output compared with BY4741” value (Ste2; Quasi-WT strain, FUS1 promoter-sfGFP)?
Answer: Its value is “substantial increase in sensitivity and signal output”.

Question: What about the “sensitivity compared with Quasi-WT” value (Ste2; design 3 strain (Gpa1 by PGK1, Ste2 by pCCW12), Fig 4A-B) of the same compound?
Answer: Its value is “approached the sensitivity of the Quasi-WT strain”.
